Data reported in patent US9828413B2, “Vancomycin derivative, and preparation method and application thereof” (ACESYS PHARMA INC., priority 2013, dated 2017).
Values after ≈ are worked out from the molar mass of the structure shown. Where two headings read alike, the source gives them in different places.

Assays:
[1] = system: Staphylococcus aureus Mu50; experiment: In vitro activity assay, minimum inhibitory concentration (MIC), cup-plate method; assay type: cell-based
Procedure: (§1) In vitro activity assay was performed according to Microbiological Identification of Antibiotics, Appendix XIA, Volume II, Chinese Pharmacopoeia 2010. Vancomycin-sensitive Staphylococcus aureus strains (Newman and Mu 50) were selected as the test strains, and trypticase soy broth was selected as the culture medium.

[2] = system: Staphylococcus aureus Newman; experiment: as above; assay type: cell-based; conditions: read-out: MIC values, Staphylococcus aureus Newman
Procedure: as §1

[3] = physchem; conditions: 25 °C, water, thermodynamic from solid
[4] = Solubility test of compounds in water; conditions: 25 °C, thermodynamic from solid
[5] = data from US2010/045201; cited from earlier work
[6] = strain Mu50, trypticase soy broth, read-out: MIC values, Staphylococcus aureus Mu50
[7] = strain Newman, trypticase soy broth

| Compound | MIC [1, 6] [µg/mL] | MIC [2, 7] [µg/mL] | solubility at 30 min [3] [µg/mL] | MIC ([1]; MU50, read-out: MIC values, Staphylococcus aureus Mu50) [µg/mL] | MIC ([2]; NEWMAN) [µg/mL] | solubility at 30 min [4] [µg/mL] | Solubility in water [5] [µg/mL] |
| --- | --- | --- | --- | --- | --- | --- | --- |
| CC(C)C[C@@H](N)C(=O)N[C@@H]1C(=O)NC(CC(N)=O)C(=O)NC2C(=O)NC3C(=O)N[C@H](C(=O)NC(C(=O)O)c4cc(O)cc(O)c4-c4cc3ccc4O)[C@H](OC3CC(C)(N)C(O)C(C)O3)c3ccc(c(Cl)c3)Oc3cc2cc(c3OC2OC(CO)C(O)C(O)C2OC2CC(C)(NCC(OCc3ccc(-c4ccc(Cl)cc4)cc3)C(=O)O)C(O)C(C)O2)Oc2ccc(cc2Cl)C1O (stereo partly shown) [Compound V66] | 2 (≈ 1.07 µM) | < 0.125 | 5000 to 20000 (≈ 2680 to 10700 µM) | – | – | – | – |
| CCCCCCCCCCOC(CNC1(C)CC(OC2C(Oc3c4cc5cc3Oc3ccc(cc3Cl)[C@@H](O)[C@@H]3NC(=O)C(NC(=O)C5NC(=O)C(CC(N)=O)NC(=O)[C@@H](NC(=O)[C@@H](CC(C)C)NC)C(O)c5ccc(c(Cl)c5)O4)c4ccc(O)c(c4)-c4c(O)cc(O)cc4C(C(=O)O)NC3=O)OC(CO)C(O)C2O)OC(C)C1O)C(=O)O (stereo partly shown) [Compound V67] | 4 (≈ 2.38 µM) | 2 (≈ 1.19 µM) | 5000 to 10000 (≈ 2980 to 5960 µM) | – | – | – | – |
| CCCCCCCCCCOC(CNC1(C)CC(OC2C(Oc3c4cc5cc3Oc3ccc(cc3Cl)[C@@H](O)[C@@H]3NC(=O)C(NC(=O)C5NC(=O)C(CC(N)=O)NC(=O)[C@@H](NC(=O)[C@H](N)CC(C)C)C(O)c5ccc(c(Cl)c5)O4)c4ccc(O)c(c4)-c4c(O)cc(O)cc4C(C(=O)O)NC3=O)OC(CO)C(O)C2O)OC(C)C1O)C(=O)O (stereo partly shown) [Compound V68] | 8 (≈ 4.81 µM) | 4 (≈ 2.4 µM) | 5000 to 10000 (≈ 3010 to 6010 µM) | – | – | – | – |
| CCCCCCCCCCOC(CNC1(C)CC(OC2C(Oc3c4cc5cc3Oc3ccc(cc3Cl)[C@@H](OC3CC(C)(N)C(O)C(C)O3)[C@@H]3NC(=O)C(NC(=O)C5NC(=O)C(CC(N)=O)NC(=O)[C@@H](NC(=O)[C@@H](CC(C)C)NC)C(O)c5ccc(c(Cl)c5)O4)c4ccc(O)c(c4)-c4c(O)cc(O)cc4C(C(=O)O)NC3=O)OC(CO)C(O)C2O)OC(C)C1O)C(=O)O (stereo partly shown) [Compound V69] | 8 (≈ 4.39 µM) | 2 (≈ 1.1 µM) | 5000 to 10000 (≈ 2750 to 5490 µM) | – | – | – | – |
| CN[C@H](CC(C)C)C(=O)N[C@H]1C(=O)N[C@@H](CC(N)=O)C(=O)N[C@H]2C(=O)N[C@H]3C(=O)N[C@H](C(=O)N[C@H](C(=O)O)c4cc(O)cc(O)c4-c4cc3ccc4O)[C@H](O)c3ccc(c(Cl)c3)Oc3cc2cc(c3O[C@@H]2O[C@H](CO)[C@@H](O)[C@H](O)[C@H]2O[C@H]2C[C@](C)(N)[C@H](O)[C@H](C)O2)Oc2ccc(cc2Cl)[C@H]1O [Vancomycin] | – | – | – | 8 (≈ 5.52 µM) | 2 (≈ 1.38 µM) | ≥ 100000 | – |
| Oritavancin | – | – | – | – | – | – | <100 |
